Data reported in article PMC7387483, “In silico identification and functional validation of linear cationic α-helical antimicrobial peptides in the ascidian Ciona intestinalis” (Scientific Reports, 2020).
Where no end group is shown, it is not given here.

Tested on: Escherichia coli (NBRC14237)
Assay type: cell-based
Conditions: NBRC14237
Description: (§1) Antimicrobial activities of the peptides were measured as described previously. Synthetic peptides were added to the microbial suspension in the individual wells of a microplate at final concentrations of 3.125, 6.25, 12.5, and 25 μM. The relative activities (RA) were calculated by the equation RA = ((APC − ANC) − ASA)/(APC − ANC), where APC, ANC, and ASA represent the absorbance of positive control, negative control, and samples, respectively. The bacteria and yeast strains used were Escherichia coli (NBRC14237), Staphylococcus aureus (NBRC12732), Pseudomonas aeruginosa (NBRC12582), and Saccharomyces cerevisiae (NBRC10217), which were purchased from Biological Resource Center, National Institute of Technology and Evaluation (NBRC, Tokyo, Japan). The interaction between Ciona LCAMPs and membrane interface was predicted using AmphipaSeek server (https://npsa-pbil.ibcp.fr/cgi-bin/npsa_automat.pl?page=/NPSA/npsa_amphipaseek.html)[28].
For KGGKFLNFLKKAAKVGAKVGMAALG [KH.S908.1], the “MIC, E. coli (NBRC 14237)” value was under 3.125 µM.
For WWLSRRRSSLFYWR [KH.C1.640], the “MIC, E. coli (NBRC 14237)” value was under 3.125 µM.
In the case of TINKKFRWHGKRKWWLRFVKQ [KH.S1531.4], the “MIC, E. coli (NBRC 14237)” value is reported as under 3.125 µM.
With “KLKTWPKNYWRKVWSKKNWRKFVKKFKHW [KH.S921.1]” the “MIC, E. coli (NBRC 14237)” value was under 3.125 µM.
With SRRRFDFSRRRIYVARRRSLAFAHRRR [KH.C7.94] the “MIC, E. coli (NBRC 14237)” value was 6.25 µM.

Same assay, conditions: segments with Na^4vSS less than − 30; Supplementary Fig. S1
For “RRRRRIAARIGSGVAQTGGELI [KH.C1.365, cationic amphipathic α-helical segment with Na4vSS less than − 30, synthetic peptide]”, the “Antimicrobial activity against Escherichia coli (in words)” value (“Antimicrobial activity … (in words)” below) was “no or weak antimicrobial activities”.
In the case of “FGRRRRVPGRRRRWWNERAMNEI [KH.S1007.2, cationic amphipathic α-helical segment with Na4vSS less than − 30, synthetic peptide]”, the “Antimicrobial activity … (in words)” value is reported as “no or weak antimicrobial activities”.
With “AERLMRKAAKDHWSNKMAKDVIWWEQ [KH.S930.2, cationic amphipathic α-helical segment with Na4vSS less than − 30, synthetic peptide]” the “Antimicrobial activity … (in words)” value was “no or weak antimicrobial activities”.
In the case of “FRRRRRRRRHWHHHHHYHYHHHRRRRRRRRRW [KH.L63.9, cationic amphipathic α-helical segment with Na4vSS less than − 30, synthetic peptide]”, the “Antimicrobial activity … (in words)” value is reported as “no or weak antimicrobial activities”.

Tested on: Pseudomonas aeruginosa (NBRC12582)
Assay type: cell-based
Conditions: not given
Description: as §1
For KGGKFLNFLKKAAKVGAKVGMAALG [KH.S908.1], the “MIC, P. aeruginosa (NBRC 12582)” value was 6.25 µM.
With “KLKTWPKNYWRKVWSKKNWRKFVKKFKHW [KH.S921.1]” the “MIC, P. aeruginosa (NBRC 12582)” value was under 3.125 µM.

Tested on: Saccharomyces cerevisiae (NBRC10217)
Assay type: cell-based
Conditions: not given
Description: as §1
With KGGKFLNFLKKAAKVGAKVGMAALG [KH.S908.1] the “MIC, S. cerevisiae (NBRC 10217)” value was 6.25 µM.
For WWLSRRRSSLFYWR [KH.C1.640], the “MIC, S. cerevisiae (NBRC 10217)” value was 12.5 µM.
For TINKKFRWHGKRKWWLRFVKQ [KH.S1531.4], the “MIC, S. cerevisiae (NBRC 10217)” value was 6.25 µM.
For SRRRFDFSRRRIYVARRRSLAFAHRRR [KH.C7.94], the “MIC, S. cerevisiae (NBRC 10217)” value was 6.25 µM.

Tested on: Staphylococcus aureus (NBRC12732)
Assay type: cell-based
Conditions: not given
Description: as §1
For KGGKFLNFLKKAAKVGAKVGMAALG [KH.S908.1], the “MIC, S. aureus (NBRC 12732)” value was under 3.125 µM.
For WWLSRRRSSLFYWR [KH.C1.640], the “MIC, S. aureus (NBRC 12732)” value was under 3.125 µM.
With TINKKFRWHGKRKWWLRFVKQ [KH.S1531.4] the “MIC, S. aureus (NBRC 12732)” value was under 3.125 µM.
In the case of “KLKTWPKNYWRKVWSKKNWRKFVKKFKHW [KH.S921.1]”, the “MIC, S. aureus (NBRC 12732)” value is reported as under 3.125 µM.
For SRRRFDFSRRRIYVARRRSLAFAHRRR [KH.C7.94], the “MIC, S. aureus (NBRC 12732)” value was 6.25 µM.

Tested on: not given
Conditions: cited from earlier work
Description: We examined the effects of five novel Ciona LCAMPs in the presence of NaCl on antimicrobial activity against E. coli. Reflective of the habitat of C. intestinalis, salt resistance was found in all peptides at the concentration of 12.5 μM (Fig. 2).
In the case of “ALRSAVRTVARVGRAVLPHVAI [Ci-PAP-A, known salt-resistant LCAMP from C. intestinalis hemocyte EST database]”, the “NaCl concentration in the presence of which antimicrobial activity is exhibited” value is listed as 100 mM.
For “WRSLGRTLLRLSHALKPLARRSGW [Ci-MAM-A, known salt-resistant LCAMP from C. intestinalis hemocyte EST database]”, the “NaCl concentration in the presence of which antimicrobial activity is exhibited” value is given as 450 mM.

Tested on: bacteria
Conditions: in vitro development-resistance studies; cited from earlier work
Source text: Antimicrobial peptides are crucial and widespread effector molecules of the innate immune system and are a part of the first line of host defense against invading pathogens[1],[2]. To date, thousands of antimicrobial peptides have been identified from bacteria to mammals and have been classified into several groups on basis of the structure and sequence features[3]–[5]. Of these, linear cationic α-helical antimicrobial peptides (LCAMPs), the genes of which encode short amphipathic peptides without cysteine residues, are the most abundant and widespread in organisms. LCAMPs are known for their ...
For pexiganan, the “Potential for induction of bacterial resistance” value is given as “low potential for induction of bacterial resistance”.
